From patent publication US7176224B2, “Oxazolyl-aryloxyacetic acid derivatives and their use as PPAR agonists” (Eli Lilly and Company, priority 2000, dated 2007)

Experiments:
huPPARα = target: T1, huPPARα (Homo sapiens, UniProt Q07869); test: DNA-dependent binding (ABCD binding), SPA, radioligand displacement; details: tritium-labeled PPARα agonist radioligand
T1 sequence (Q07869 1-468): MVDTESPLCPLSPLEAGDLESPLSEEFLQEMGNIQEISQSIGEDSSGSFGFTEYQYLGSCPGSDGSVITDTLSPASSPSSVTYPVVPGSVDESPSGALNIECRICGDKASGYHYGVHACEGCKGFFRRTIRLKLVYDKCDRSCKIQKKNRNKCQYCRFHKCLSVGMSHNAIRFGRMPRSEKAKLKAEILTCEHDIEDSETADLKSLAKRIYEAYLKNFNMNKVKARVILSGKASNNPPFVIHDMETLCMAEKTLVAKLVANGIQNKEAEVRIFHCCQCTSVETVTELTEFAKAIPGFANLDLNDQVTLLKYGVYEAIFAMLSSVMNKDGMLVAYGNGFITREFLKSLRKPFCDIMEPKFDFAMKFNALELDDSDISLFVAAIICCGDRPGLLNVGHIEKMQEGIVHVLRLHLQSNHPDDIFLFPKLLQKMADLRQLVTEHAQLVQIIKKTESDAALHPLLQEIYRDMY
T1 sequence (P19793 1-462 partner): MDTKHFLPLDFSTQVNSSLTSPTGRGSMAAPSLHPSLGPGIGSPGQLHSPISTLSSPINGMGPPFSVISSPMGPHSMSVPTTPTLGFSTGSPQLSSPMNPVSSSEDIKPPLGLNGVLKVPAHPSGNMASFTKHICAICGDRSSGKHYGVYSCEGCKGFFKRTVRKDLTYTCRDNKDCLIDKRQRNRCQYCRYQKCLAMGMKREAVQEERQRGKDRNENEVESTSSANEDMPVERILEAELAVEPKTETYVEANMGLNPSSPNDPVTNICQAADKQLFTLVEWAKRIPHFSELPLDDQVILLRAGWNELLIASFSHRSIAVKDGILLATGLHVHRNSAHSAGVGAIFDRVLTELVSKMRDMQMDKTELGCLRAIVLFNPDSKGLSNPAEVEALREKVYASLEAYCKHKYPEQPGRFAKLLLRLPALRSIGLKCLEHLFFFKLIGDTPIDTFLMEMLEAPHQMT
Protocol: (§1) […] binding (ABCD binding) was carried out using SPA technology with PPAR receptors. Tritium-labeled PPARα and PPARγ agonists were used as radioligands for generating displacement curves and IC50 values with compounds of the invention. Cotransfection assays were carried out in CV-1 cells. The reporter plasmid contained an acylCoA oxidase (AOX) PPRE and TK promoter upstream of the luciferase reporter cDNA. Appropriate PPARs and RXRα were constitutively expressed using plasmids containing the CMV promoter. […] In order to eliminate such interference, a GAL4 chimeric system was used in which the DNA binding domain of the transfected PPAR was replaced by that of GAL4, and the GAL4 response element was utilized in place of the AOX PPRE. Cotransfection efficacy was determined relative to PPARα agonist and PPARβ agonist reference molecules. Efficacies were determined by computer fit to a concentration-response curve, or in some cases at a single high concentration of agonist (10 μM). For binding or cotransfection studies with receptors other than PPARs, similar assays were carried out using appropriate ligands, receptors, reporter constructs, etc., for that particular receptor.
(§2) These studies were carried out to evaluate the ability of compounds of the invention to bind to and/or activate various nuclear transcription factors, particularly huPPARα (“hu” indicates “human”) and huPPARγ. These studies provide in vitro data concerning efficacy and selectivity of compounds of the invention. Furthermore, binding and cotransfection data for compounds of the invention were compared with corresponding data for marketed compounds that act on either huPPARα or huPPARγ.

huPPARγ [1] = target: T2, huPPARγ (Homo sapiens, UniProt P37231); test: as above; details: tritium-labeled PPARγ agonist radioligand
T2 sequence (P37231 1-505): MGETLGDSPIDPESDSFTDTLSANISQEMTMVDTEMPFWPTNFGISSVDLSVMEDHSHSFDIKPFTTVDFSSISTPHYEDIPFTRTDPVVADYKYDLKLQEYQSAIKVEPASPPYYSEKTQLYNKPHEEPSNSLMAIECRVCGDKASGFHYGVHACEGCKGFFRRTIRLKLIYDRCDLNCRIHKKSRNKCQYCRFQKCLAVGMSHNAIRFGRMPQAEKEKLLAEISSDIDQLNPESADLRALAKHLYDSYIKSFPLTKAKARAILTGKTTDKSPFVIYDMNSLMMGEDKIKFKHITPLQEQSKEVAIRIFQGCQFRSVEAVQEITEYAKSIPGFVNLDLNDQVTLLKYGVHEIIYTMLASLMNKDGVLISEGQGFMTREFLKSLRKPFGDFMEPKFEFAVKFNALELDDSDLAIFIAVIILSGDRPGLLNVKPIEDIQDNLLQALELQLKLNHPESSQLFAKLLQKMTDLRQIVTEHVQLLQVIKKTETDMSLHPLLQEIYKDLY
T2 sequence (P19793 1-462 partner): T1 sequence (P19793 1-462 partner)
Protocol: as §1, §2

huPPARγ [2] = test: Cotransfection assay in CV-1 cells, luciferase reporter; assay type: cell-based, human; details: GAL4 chimeric system, relative to agonist reference molecule
Protocol: as §1, with “Tritium-labeled PPARα and PPARγ agonists were used as radioligands for generating displacement curves and IC50 values with compounds of the invention.” left out, “Cotransfection efficacy was determined relative to PPARα agonist and PPARβ agonist reference molecules.” left out
as §2

IC50 (huPPARα): 147 nM | IC50 (huPPARγ [1]): 41 nM
SMILES: Cc1oc(-c2cccc(-c3ccc(F)cc3)c2)nc1CCOc1ccc(CC(C)(Oc2ccccc2)C(=O)O)cc1 (stereo not drawn) [Example 4, 3-(4-{2-[2-(4′-Fluorobiphenyl-3-yl)-5-methyloxazol-4-yl]ethoxy}phenyl)-2-methyl-2-phenoxypropionic acid]
huPPARγ CTF Efficacy (huPPARγ [2]): 93%
